Measured values: ChEMBL document CHEMBL3991601, “The target landscape of clinical kinase drugs” (Science, 2017)
Active and inactive are the calls of the source.

Assays:
[1] = biological target: T1, Acyl-CoA dehydrogenase family member 10 (Homo sapiens, UniProt Q6JQN1)
T1 sequence (Q6JQN1 whole entry): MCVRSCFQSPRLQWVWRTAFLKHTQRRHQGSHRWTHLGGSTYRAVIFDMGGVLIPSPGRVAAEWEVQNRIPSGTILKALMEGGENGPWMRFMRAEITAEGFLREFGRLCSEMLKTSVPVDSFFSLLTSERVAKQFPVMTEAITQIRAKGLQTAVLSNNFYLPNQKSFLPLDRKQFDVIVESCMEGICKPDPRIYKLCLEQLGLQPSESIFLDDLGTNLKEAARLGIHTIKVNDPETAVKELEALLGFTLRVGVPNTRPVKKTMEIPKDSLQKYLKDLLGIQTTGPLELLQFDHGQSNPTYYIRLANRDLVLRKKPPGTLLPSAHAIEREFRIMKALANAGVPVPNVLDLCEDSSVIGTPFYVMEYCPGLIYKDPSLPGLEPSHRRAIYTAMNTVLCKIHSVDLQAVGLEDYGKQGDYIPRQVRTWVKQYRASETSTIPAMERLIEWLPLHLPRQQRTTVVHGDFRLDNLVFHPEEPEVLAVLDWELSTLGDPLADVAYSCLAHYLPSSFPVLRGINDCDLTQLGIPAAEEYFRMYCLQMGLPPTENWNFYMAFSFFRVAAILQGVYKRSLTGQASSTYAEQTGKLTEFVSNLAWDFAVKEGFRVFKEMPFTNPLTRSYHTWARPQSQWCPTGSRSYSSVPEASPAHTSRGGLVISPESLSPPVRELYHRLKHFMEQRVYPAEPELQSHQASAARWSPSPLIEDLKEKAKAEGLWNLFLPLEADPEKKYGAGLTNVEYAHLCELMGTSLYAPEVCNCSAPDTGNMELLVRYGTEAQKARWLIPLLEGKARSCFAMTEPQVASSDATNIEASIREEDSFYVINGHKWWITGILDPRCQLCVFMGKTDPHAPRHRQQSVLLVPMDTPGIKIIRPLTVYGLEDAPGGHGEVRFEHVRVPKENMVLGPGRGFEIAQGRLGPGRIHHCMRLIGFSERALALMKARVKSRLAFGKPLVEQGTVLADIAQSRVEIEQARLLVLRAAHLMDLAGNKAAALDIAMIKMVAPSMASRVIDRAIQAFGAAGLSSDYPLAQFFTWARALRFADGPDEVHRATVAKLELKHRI

[2] = biological target: Atypical kinase COQ8A, mitochondrial (Homo sapiens, UniProt Q8NI60)
Sequence of Atypical kinase COQ8A, mitochondrial (Q8NI60 whole entry): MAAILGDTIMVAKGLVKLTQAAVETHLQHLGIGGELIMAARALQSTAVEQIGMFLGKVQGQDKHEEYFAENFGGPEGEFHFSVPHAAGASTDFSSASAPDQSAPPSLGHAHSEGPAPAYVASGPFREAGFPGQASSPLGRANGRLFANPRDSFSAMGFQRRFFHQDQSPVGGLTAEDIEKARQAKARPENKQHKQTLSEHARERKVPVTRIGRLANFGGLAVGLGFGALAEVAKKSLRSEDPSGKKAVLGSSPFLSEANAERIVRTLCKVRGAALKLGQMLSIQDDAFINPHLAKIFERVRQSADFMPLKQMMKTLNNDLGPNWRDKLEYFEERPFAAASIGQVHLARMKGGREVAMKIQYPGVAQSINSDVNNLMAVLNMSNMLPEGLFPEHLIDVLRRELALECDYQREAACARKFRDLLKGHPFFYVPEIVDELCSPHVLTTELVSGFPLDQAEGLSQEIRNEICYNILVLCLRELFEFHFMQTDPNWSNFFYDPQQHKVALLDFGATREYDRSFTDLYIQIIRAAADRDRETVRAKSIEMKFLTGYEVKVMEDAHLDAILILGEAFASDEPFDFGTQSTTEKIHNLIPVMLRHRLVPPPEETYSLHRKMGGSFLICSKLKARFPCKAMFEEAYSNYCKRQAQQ

[3] = biological target: T2, Isoleucine--tRNA ligase, mitochondrial (Homo sapiens, UniProt Q9NSE4)
T2 sequence (Q9NSE4 whole entry): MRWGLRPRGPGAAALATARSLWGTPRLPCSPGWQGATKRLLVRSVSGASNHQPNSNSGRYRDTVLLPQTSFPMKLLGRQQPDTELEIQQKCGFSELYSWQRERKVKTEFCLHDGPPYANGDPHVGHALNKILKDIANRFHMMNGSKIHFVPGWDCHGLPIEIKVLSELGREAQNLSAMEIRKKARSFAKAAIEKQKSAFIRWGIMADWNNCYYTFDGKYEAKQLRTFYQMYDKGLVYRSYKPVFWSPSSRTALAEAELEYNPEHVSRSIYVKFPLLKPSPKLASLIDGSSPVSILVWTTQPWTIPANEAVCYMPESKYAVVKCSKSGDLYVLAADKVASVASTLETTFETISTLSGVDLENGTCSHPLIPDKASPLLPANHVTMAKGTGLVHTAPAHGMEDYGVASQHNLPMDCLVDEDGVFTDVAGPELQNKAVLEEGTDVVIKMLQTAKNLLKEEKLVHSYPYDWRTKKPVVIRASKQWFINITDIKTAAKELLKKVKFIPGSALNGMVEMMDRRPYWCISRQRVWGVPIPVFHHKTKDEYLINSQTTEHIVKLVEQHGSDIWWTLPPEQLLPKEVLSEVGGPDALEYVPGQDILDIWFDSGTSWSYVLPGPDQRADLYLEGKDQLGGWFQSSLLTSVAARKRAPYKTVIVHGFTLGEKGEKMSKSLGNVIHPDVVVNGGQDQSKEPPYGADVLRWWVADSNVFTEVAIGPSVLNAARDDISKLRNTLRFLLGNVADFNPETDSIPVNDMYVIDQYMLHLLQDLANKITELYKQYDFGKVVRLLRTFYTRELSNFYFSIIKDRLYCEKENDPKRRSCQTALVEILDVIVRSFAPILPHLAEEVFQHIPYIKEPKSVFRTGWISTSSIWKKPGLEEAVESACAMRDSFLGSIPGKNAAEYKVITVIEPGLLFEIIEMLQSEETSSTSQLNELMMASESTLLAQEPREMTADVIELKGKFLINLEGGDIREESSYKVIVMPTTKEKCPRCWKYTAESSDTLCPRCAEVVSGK

[4] = biological target: Choline-phosphate cytidylyltransferase A (Homo sapiens, UniProt P49585)
Sequence of Choline-phosphate cytidylyltransferase A (P49585 whole entry): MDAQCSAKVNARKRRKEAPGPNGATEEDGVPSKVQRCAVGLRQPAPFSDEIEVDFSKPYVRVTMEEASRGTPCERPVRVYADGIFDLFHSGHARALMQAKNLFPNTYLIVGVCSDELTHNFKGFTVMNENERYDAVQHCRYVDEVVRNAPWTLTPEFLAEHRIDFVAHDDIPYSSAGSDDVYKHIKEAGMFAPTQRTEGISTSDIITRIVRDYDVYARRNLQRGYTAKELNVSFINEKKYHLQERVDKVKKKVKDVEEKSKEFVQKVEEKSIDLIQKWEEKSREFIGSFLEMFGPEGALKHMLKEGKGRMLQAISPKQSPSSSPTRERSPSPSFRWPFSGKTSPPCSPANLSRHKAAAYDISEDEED

[5] = biological target: T3, Phosphatidylinositol 5-phosphate 4-kinase type-2 gamma (Homo sapiens, UniProt Q8TBX8)
T3 sequence (Q8TBX8 whole entry): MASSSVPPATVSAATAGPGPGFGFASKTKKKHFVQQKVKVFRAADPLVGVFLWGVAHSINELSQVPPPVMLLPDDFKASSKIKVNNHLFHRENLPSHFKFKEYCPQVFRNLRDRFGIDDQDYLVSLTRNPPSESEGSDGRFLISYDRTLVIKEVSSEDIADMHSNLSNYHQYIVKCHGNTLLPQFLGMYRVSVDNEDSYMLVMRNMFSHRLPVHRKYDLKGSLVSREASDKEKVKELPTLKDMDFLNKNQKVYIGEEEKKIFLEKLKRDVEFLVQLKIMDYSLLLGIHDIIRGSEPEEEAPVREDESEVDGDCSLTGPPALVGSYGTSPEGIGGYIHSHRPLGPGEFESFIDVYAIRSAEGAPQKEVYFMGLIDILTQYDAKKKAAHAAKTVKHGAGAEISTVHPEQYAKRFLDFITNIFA

[6] = biological target: Dual specificity testis-specific protein kinase 2 (Homo sapiens, UniProt Q96S53)
Sequence of Dual specificity testis-specific protein kinase 2 (Q96S53 whole entry): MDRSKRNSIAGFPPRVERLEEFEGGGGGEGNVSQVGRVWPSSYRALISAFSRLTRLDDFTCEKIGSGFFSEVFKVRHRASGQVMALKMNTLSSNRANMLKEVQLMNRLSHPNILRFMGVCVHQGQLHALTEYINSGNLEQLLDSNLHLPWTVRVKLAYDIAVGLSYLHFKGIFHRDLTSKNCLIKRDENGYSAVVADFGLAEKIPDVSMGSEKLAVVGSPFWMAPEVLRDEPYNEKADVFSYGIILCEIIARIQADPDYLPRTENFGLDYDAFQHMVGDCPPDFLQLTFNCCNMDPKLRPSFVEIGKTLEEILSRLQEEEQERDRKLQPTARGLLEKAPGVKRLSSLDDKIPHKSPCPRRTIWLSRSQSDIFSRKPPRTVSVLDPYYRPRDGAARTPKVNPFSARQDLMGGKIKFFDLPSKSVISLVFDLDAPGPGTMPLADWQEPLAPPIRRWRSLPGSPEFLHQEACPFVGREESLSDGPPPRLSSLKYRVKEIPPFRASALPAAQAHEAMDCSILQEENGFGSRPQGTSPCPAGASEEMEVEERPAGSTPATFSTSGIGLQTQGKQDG
Also: in the data inactive means no Kd found up to 30 µM.

Row | SMILES | Kd [1] | Kd [2] | Kd [3] | Kd [4] | Kd [5] | Kd [6]
1 | COCC(=O)NC/C=C/c1ccc2ncnc(Nc3ccc(Oc4ccc(C)nc4)c(C)c3)c2c1 [CP-724714] | > 30 µM (inactive) | > 30 µM (inactive) | > 30 µM (inactive) | > 30 µM (inactive) | > 30 µM (inactive) | > 30 µM (inactive)
2 | CC(C)(C)c1nc(-c2cccc(NS(=O)(=O)c3c(F)cccc3F)c2F)c(-c2ccnc(N)n2)s1 [DABRAFENIB] | > 30 µM (inactive) | > 30 µM (inactive) | > 30 µM (inactive) | > 30 µM (inactive) | > 30 µM (inactive) | > 30 µM (inactive)
3 | Cc1[nH]c(/C=C2\C(=O)Nc3ccccc32)c(C)c1CCC(=O)O [ORANTINIB] | > 30 µM (inactive) | > 30 µM (inactive) | > 30 µM (inactive) | > 30 µM (inactive) |  | > 30 µM (inactive)
4 | CNC(=O)c1cc(Oc2ccc(NC(=O)Nc3cc(C(C)(C)C)nn3-c3ccc4ncccc4c3)c(F)c2)ccn1 [REBASTINIB] | > 30 µM (inactive) | > 30 µM (inactive) |  | > 30 µM (inactive) | > 30 µM (inactive) | 0.002 µM
5 | CO[C@H]1C[C@@H]2CC[C@@H](C)[C@@](O)(O2)C(=O)C(=O)N2CCCC[C@H]2C(=O)O[C@H]([C@H](C)C[C@@H]2CC[C@@H](O)[C@H](OC)C2)CC(=O)[C@H](C)/C=C(\C)[C@@H](O)[C@@H](OC)C(=O)[C@H](C)C[C@H](C)/C=C/C=C/C=C/1C [SIROLIMUS] | > 30 µM (inactive) | > 30 µM (inactive) | > 30 µM (inactive) | > 30 µM (inactive) | > 30 µM (inactive) | > 30 µM (inactive)
6 | C[C@@H](NC(=O)c1ncnc(N)c1Cl)c1ncc(C(=O)Nc2cc(C(F)(F)F)c(Cl)cn2)s1 [TOVORAFENIB] | > 30 µM (inactive) | > 30 µM (inactive) |  | > 30 µM (inactive) | > 30 µM (inactive) | > 30 µM (inactive)
7 | Cc1cc(Nc2ncnc3ccc(NC4=NC(C)(C)CO4)cc23)ccc1Oc1ccn2ncnc2c1 [TUCATINIB] | > 30 µM (inactive) | > 30 µM (inactive) | > 30 µM (inactive) | > 30 µM (inactive) | > 30 µM (inactive) | > 30 µM (inactive)

Results, then the compound that gave them:

Row | Kd [1] | Kd [2] | Kd [3] | Kd [4] | Kd [5] | Kd [6] | SMILES
8 | > 30 µM (inactive) | > 30 µM (inactive) | > 30 µM (inactive) | > 30 µM (inactive) | > 30 µM (inactive) | 0.018 µM | Cc1nc2cc(-c3nn(C(C)C)c4ncnc(N)c34)ccc2o1
9 |  | > 30 µM (inactive) | > 30 µM (inactive) | > 30 µM (inactive) | > 30 µM (inactive) | > 30 µM (inactive) | O=C(Nc1c[nH]nc1-c1nc2cc(CN3CCOCC3)ccc2[nH]1)NC1CC1 [AT-9283]
10 | > 30 µM (inactive) |  | > 30 µM (inactive) | > 30 µM (inactive) |  | > 30 µM (inactive) | C[C@@H](Oc1cc(-n2cnc3ccc(CN4CCN(C)CC4)cc32)sc1C(N)=O)c1ccccc1C(F)(F)F [GSK-461364]
11 | > 30 µM (inactive) | 3.01 µM (active) |  | > 30 µM (inactive) | 1.43 µM (active) | > 30 µM (inactive) | CNC(=O)c1nn(C)c2c1C(C)(C)Cc1cnc(Nc3ccc(N4CCN(C)CC4)cc3)nc1-2 [MILCICLIB]
12 | > 30 µM (inactive) | > 30 µM (inactive) |  | > 30 µM (inactive) | > 30 µM (inactive) | > 30 µM (inactive) | CC(=O)NCC(=O)N1[C@@H]2CC[C@H]1c1ccc(Nc3ncc(C(F)(F)F)c(NC4CCC4)n3)cc12 [PF-03814735]
13 | > 30 µM (inactive) | > 30 µM (inactive) | > 30 µM (inactive) | > 30 µM (inactive) | > 30 µM (inactive) | > 30 µM (inactive) | Cc1cnc(NC(=O)Nc2cc(Br)c(C)cc2OC[C@@H]2CNCCO2)cn1 [RABUSERTIB]
14 | > 30 µM (inactive) | > 30 µM (inactive) | > 30 µM (inactive) | > 30 µM (inactive) | > 30 µM (inactive) | > 30 µM (inactive) | COc1cc2c(Nc3ccc(Cl)c(Cl)c3F)ncnc2cc1OC[C@@H]1C[C@@H]2CN(C)C[C@@H]2C1 [TESEVATINIB]
15 | > 30 µM (inactive) | > 30 µM (inactive) | > 30 µM (inactive) | > 30 µM (inactive) | > 30 µM (inactive) | > 30 µM (inactive) | O=C(Cc1ccc(-c2ccc(OCCN3CCOCC3)cc2)cn1)NCc1ccccc1 [TIRBANIBULIN]
